#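 Briefly, cells in 96-well plates were exposed to five compound concentrations for 48 h, and endpoints were estimated by linear interpolation. GI50 = concentration required for 50% inhibition of growth. TGI marks complete inhibition of growth.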
# Key:
# Test in all cases: NCI tumour cell line growth inhibition, 48 h
# NCI-H522 lung = tested on: NCI-H522 lung
# OVCAR-3 ovarian = tested on: OVCAR-3 ovarian
# NCI/ADR-RES ovarian = tested on: NCI/ADR-RES ovarian
# MALME-3M melanoma = tested on: MALME-3M melanoma
# HL-60(TB) leukemia = tested on: HL-60(TB) leukemia
# OVCAR-4 ovarian = tested on: OVCAR-4 ovarian
# NCI-H226 lung = tested on: NCI-H226 lung
# CAKI-1 renal = tested on: CAKI-1 renal
Compound,GI50 (NCI-H522 lung) [µM],TGI (NCI-H522 lung) [µM],GI50 (OVCAR-3 ovarian) [µM],TGI (OVCAR-3 ovarian) [µM],GI50 (NCI/ADR-RES ovarian) [µM],TGI (NCI/ADR-RES ovarian) [µM],GI50 (MALME-3M melanoma) [µM],TGI (MALME-3M melanoma) [µM],GI50 (HL-60(TB) leukemia) [µM],GI50 (OVCAR-4 ovarian) [µM],TGI (OVCAR-4 ovarian) [µM],GI50 (NCI-H226 lung) [µM],TGI (NCI-H226 lung) [µM],GI50 (CAKI-1 renal) [µM],TGI (CAKI-1 renal) [µM],TGI (HL-60(TB) leukemia) [µM]
Cc1nn(-c2ccc([N+](=O)[O-])cc2)c2ncnc(N/N=C/c3ccccc3O)c12,0.365,7.56,0.262,1.56,0.337,3.66,0.62,3.95,0.31,0.202,4.62,2.56,> 26.2,0.496,1.82,
Nc1c(C(=O)c2cccc(C#CCO)c2)cnn1-c1ccc(F)cc1,> 25,> 25,> 25,> 25,> 25,> 25,> 25,> 25,> 25,> 23.3,> 25,> 25,> 25,> 25,> 25,> 25
Nc1c(C(=O)c2cccc(-c3cccnc3)c2)cnn1-c1ccc(F)cc1F,1.57,> 15,3.93,> 25,1.2,> 21.9,2.26,> 20.9,5.76,7.77,> 25,6.96,> 25,4.53,> 25,> 25
C#CCNCCN1C(=O)c2ccc3c4c(ccc(c24)C1=O)C(=O)N(CCNCC#C)C3=O,3.98,10.9,1.52,4.22,4.07,24.4,0.903,3.14,8.35,1.96,7.47,2.96,12.2,5.05,15.6,25.8
O=C1NOC(c2ccc(O)cc2)(c2ccc(O)cc2)c2ccccc21,> 100,> 100,> 100,> 100,> 100,> 100,> 100,> 100,> 100,> 100,> 100,> 100,> 100,> 100,> 100,> 100
COC(=O)Nc1nc2ccc(Oc3cccc(NC(=O)Nc4cc(C(F)(F)F)ccc4F)c3)cc2[nH]1,5.73,20.6,14,> 25,24.8,> 25,6.04,> 25,4.98,17.6,> 25,> 15.3,> 25,14.3,> 25,18.5
CCN1C(=O)N(CC)C2C1NN=c1s/c(=C\c3ccccn3)c(=O)n12 (stereo unspecified),0.69,10.2,0.403,2.2,0.977,> 100,1.63,> 100,0.487,> 100,> 100,3.07,> 100,0.752,> 100,3.42
Cc1nn(C)c(COc2ccc(N3CCN(S(=O)(=O)N(C)C)CC3)cc2)c1-c1cccc2c(CCCOc3cccc4ccccc34)c(C(=O)O)n(CCN3CCOCC3)c12,3.11,9.35,2.72,8.57,36.5,> 100,3.15,15.5,2.45,3.4,14.1,3.19,15.9,11.4,23.9,6.07
CC(=O)[O][Sn]([CH2]c1ccccc1)([CH2]c1ccccc1)[CH2]c1ccccc1,> 3.86,> 7.23,> 6.14,> 10,> 10,> 10,> 4.38,> 6.05,> 5.79,> 4.36,> 6.02,> 10,> 10,> 10,> 10,> 7.61
COc1ccc(CC(=O)c2ccc(O)cc2O)cc1,60.8,> 100,61.5,> 100,58.8,> 100,45.2,> 100,40.9,> 100,> 100,> 100,> 100,59.6,> 100,> 100
COc1ccc(C2=C(c3ccc(OC)c(OC)c3)C(=O)N3CCCC3C2)cc1 (stereo unspecified),15.7,> 100,23.9,> 93.8,39.6,> 100,> 71.4,> 100,4.26,20.6,> 100,43.9,> 100,39.4,> 100,22.7
O=[N+]([O-])c1ccc(N2CCC(CCCC3CCN(c4ccc([N+](=O)[O-])cc4[N+](=O)[O-])CC3)CC2)c([N+](=O)[O-])c1,,42.8,,34.5,,57.7,,42.4,,,33.4,,56.6,,41.1,35.9
Nc1ccccc1C#C/C=C\C#Cc1cccc(O)c1,1.09,11.5,2.73,14.7,2.39,10.3,11.3,> 43.4,4.15,6.68,> 84.8,6.03,20.9,8.08,36.2,21.2
C[C@]12CC[C@@H]3c4ccc(O)cc4CC[C@H]3[C@@H]1Cc1cnc(N)nc12,17.3,41.2,23,58.7,17.7,41.4,15.6,29.8,22.1,32.2,> 100,15.2,33.8,23.8,49.8,> 100
Nc1ncnc2c1c(-c1ccc(Oc3ccccc3)cc1)nn2C[C@@H]1SSC[C@H]1O,2.08,7.18,0.819,9.76,2.96,14,1.25,6.45,1.84,2.12,> 83.4,1.69,4.7,2.18,10.5,6.79
